Values of other authors, collected in patent publication US20090312281A1, “PROCESS FOR THE PREPARATION OF A PULVERULENT COMPOSITION AND PRODUCT AS OBTAINED” (INNOV'IA, priority 2006, published 2009).

| SMILES | Solubility in water at 60° C. (% weight/weight) |
| --- | --- |
| OC[C@H]1O[C@@](CO)(O[C@H]2O[C@H](CO)[C@@H](O)[C@H](O)[C@H]2O)[C@@H](O)[C@@H]1O [Sucrose] | 71 % weight/weight |
| O=C(CO)[C@@H](O)[C@H](O)[C@H](O)CO [Fructose] | 89 % weight/weight |
